{
  "source": "paper PMC11979273",
  "about": "“A phase I study to evaluate the safety, tolerability, and pharmacokinetics of HEC113995PA·H2O, a novel dual-acting serotonergic antidepressant, in healthy subjects” (Frontiers in Pharmacology, 2025)",
  "key": {"[1]": {"experiment": "Food effect study, safety (adverse events)", "assay_type": "in vivo, human", "text": "A total of 18 healthy subjects of both genders, were assigned randomly to three sequences A, B, and C (n = 6). All subjects received HEC113995PA·H2O tablets, with a total of 3 times administered during the trial, once per cycle, and a washout period of ≥11 days. In sequence A, the order of administration was as follows: fasting, after a standard meal, and after a high-fat meal. In sequence B, the order of administration was after a standard meal, after a high-fat meal, and fasting. Sequence C subjects were administered in the following order: after a high-fat meal, fasting, and after a standard meal. During the fed periods, a single oral dose of HEC113995PA·H2O tablet 20 mg was administered within 30 min after consumption of a standard meal (total calories: approximately 600 kcal), or a high-fat, high-calorie meal (total calories: approximately 800 kcal–1,000 kcal, which derives about 150, 250, and 500–600 kcal from protein, carbohydrate, and fat, respectively). Serial blood samples were collected before and after each cycle for PK determination of plasma concentration and the evaluation of pharmacokinetic characteristics. Safety and tolerability were assessed on days 4 and 28.\nSafety indicators were assessed through adverse events (AE), clinical laboratory tests (including blood routine, blood biochemistry, urine routine), vital signs monitoring (ear temperature), pulse, respiration and blood pressure in a sitting position), 12-lead electrocardiogram (ECG) and physical examinations. Adverse events (AE) and serious adverse events (SAE) were evaluated following the criteria outlined in National Cancer Institute Common Terminology Criteria for Adverse Events (NCI-CTCAE) version 5.0.\nAny adverse events that occurred in all subjects during the clinical trial were recorded with the following details: AE name, occurrence time, end time, severity, whether it was classified as a SAE, severity criteria (if applicable), treatment measures and outcomes, actions taken on investigational drug due to the AE, and the causal relationship between the AE and administrated drug, etc. Each AE was recorded separately."}, "[2]": {"experiment": "Acid-base ionization constants", "assay_type": "physicochemical"}, "[3]": {"settings": "FE trial 20 mg, 1 case, after a high-fat meal"}, "[4]": {"settings": "FE trial 20 mg, after a high-fat meal"}, "[5]": {"settings": "FE trial 20 mg, after a high-fat meal, 5 incidents"}, "[6]": {"settings": "FE trial 20 mg, after a standard meal"}, "[7]": {"settings": "FE trial 20 mg, fasting conditions"}, "[8]": {"settings": "FE trial 20 mg, overall, 2 cases"}},
  "note": "Where two headings read alike, the source gives them in different places.",
  "data": [
    {"compound": "Cc1nc(-c2cnc(N3CCN(CCCc4c[nH]c5ccc(C#N)cc45)CC3)nc2)sc1C(N)=O", "note": "[HEC113995PA·H2O]", "values": [
      {"measurement": "safety and tolerability", "setting": "[1]; 20 mg fasting, after a standard meal and after a high-fat meal", "result": "good safety and tolerability"},
      {"measurement": "TRAE incidence: elevated blood bilirubin", "setting": "[1]; [3]", "result": 5.6, "unit": "%"},
      {"measurement": "TRAE incidence: elevated conjugated bilirubin", "setting": "[1]; [3]", "result": 5.6, "unit": "%"},
      {"measurement": "TRAE: elevated blood triglycerides", "setting": "[1]; [4]", "result": 1, "unit": "case"},
      {"measurement": "TRAE: elevated blood uric acid", "setting": "[1]; [4]", "result": 2, "unit": "cases"},
      {"measurement": "TRAE: nausea", "setting": "[1]; [4]", "result": 1, "unit": "case"},
      {"measurement": "TEAE incidence", "setting": "[1]; [5]", "result": 27.8, "unit": "%"},
      {"measurement": "TRAE incidence", "setting": "[1]; [5]", "result": 27.8, "unit": "%"},
      {"measurement": "TRAE: elevated blood uric acid", "setting": "[1]; [6]", "result": 2, "unit": "cases"},
      {"measurement": "TRAE: nausea", "setting": "[1]; [6]", "result": 1, "unit": "case"},
      {"measurement": "TRAE incidence", "setting": "[1]; FE trial 20 mg, after a standard meal, 3 incidents", "result": 16.7, "unit": "%"},
      {"measurement": "TEAE incidence", "setting": "[1]; FE trial 20 mg, after a standard meal, 4 incidents", "result": 22.2, "unit": "%"},
      {"measurement": "TEAE incidents", "setting": "[1]; FE trial 20 mg, fasting administration", "result": 6, "unit": "incidents"},
      {"measurement": "TRAE incidence", "setting": "[1]; FE trial 20 mg, fasting administration, 4 incidents", "result": 22.2, "unit": "%"},
      {"measurement": "TRAE: elevated blood triglycerides", "setting": "[1]; [7]", "result": 1, "unit": "case"},
      {"measurement": "TRAE: elevated blood uric acid", "setting": "[1]; [7]", "result": 1, "unit": "case"},
      {"measurement": "TRAE: nausea", "setting": "[1]; [7]", "result": 2, "unit": "cases"},
      {"measurement": "TRAE incidence: elevated blood triglycerides", "setting": "[1]; [8]", "result": 11.1, "unit": "%"},
      {"measurement": "TRAE incidence: nausea", "setting": "[1]; [8]", "result": 11.1, "unit": "%"},
      {"measurement": "TRAE incidence: elevated blood uric acid", "setting": "[1]; FE trial 20 mg, overall, 4 cases", "result": 22.2, "unit": "%"},
      {"measurement": "incidence of subjects experiencing TRAEs", "setting": "[1]; FE trial 20 mg, overall, 9 subjects, 13 TRAEs", "result": 50.0, "unit": "%"},
      {"measurement": "incidence of subjects experiencing TEAE", "setting": "[1]; FE trial 20 mg, overall, 11 subjects, 20 incidents", "result": 61.1, "unit": "%"},
      {"measurement": "severity of all TRAEs", "setting": "[1]; FE trial 20 mg, resolved spontaneously without treatment", "result": "Grade 1"},
      {"measurement": "pKa", "setting": "[2]; read-out: acid-base ionization constant pKa1", "result": 6.46},
      {"measurement": "pKa", "setting": "[2]; read-out: acid-base ionization constant pKa2", "result": 7.37}
    ]}
  ]
}
